{"source": "patent US12473250B2", "about": "“Molecular design of new antibiotics and antibiotic adjuvants against MCR strains” (priority 2019, dated 2025)", "tested_on": "various pathogens", "assay": "organism not typed", "type": "cell-based", "experimental": "The MICs of the individual drugs and LC compound in combinations were determined using the broth microdilution technique as recommended by the CLSI whereby the two anti-microbial agents were added in an equal amount. (e.g.: 50 μL of Colistin: 50 μL of LC compounds). Diluted media containing compounds and antibiotics will be serially diluted 2-fold, and LC compounds and antibiotics alone or in combination will be assayed at fixed synergy concentration. In all cases, the lowest concentration at which no visible growth occurred was be recorded to be the MIC value of individual and combined antibacterial agents. The results were obtained after 24 hours of incubation.\nUsing the combination of LC100 and colistin, the activity of a broad range of strains was further tested (Table 7)."}
{"substance": "Colistin", "values": [{"measurement": "MIC", "setting": "E. Coli CRE 19211", "value": 1.56, "unit": "µg/mL"}, {"measurement": "FOLD CHANGES [Absorbance (abs; OD 600 nm)] No Treatment [Bacteria alone]: Colistin 0.5 μg", "setting": "E. Coli CRE 34685", "value": 1.49}, {"measurement": "FOLD CHANGES [Absorbance (abs; OD 600 nm)] No Treatment [Bacteria alone]: MIC Colistin", "setting": "E. Coli CRE 34685", "value": 22.63}, {"measurement": "MIC", "setting": "E. Coli CRE 34685", "value": 0.78, "unit": "µg/mL"}, {"measurement": "FOLD CHANGES [Absorbance (abs; OD 600 nm)] No Treatment [Bacteria alone]: Colistin 0.5 μg", "setting": "E. Coli DB 16027R", "value": 1.23}, {"measurement": "FOLD CHANGES [Absorbance (abs; OD 600 nm)] No Treatment [Bacteria alone]: MIC Colistin", "setting": "E. Coli DB 16027R", "value": 14.89}, {"measurement": "MIC", "setting": "E. Coli DB 16027R", "value": 0.78, "unit": "µg/mL"}, {"measurement": "FOLD CHANGES [Absorbance (abs; OD 600 nm)] No Treatment [Bacteria alone]: Colistin 0.5 μg", "setting": "KLPN ATCC 4352", "value": 1.81}, {"measurement": "FOLD CHANGES [Absorbance (abs; OD 600 nm)] No Treatment [Bacteria alone]: MIC Colistin", "setting": "KLPN ATCC 4352", "value": 3.54}, {"measurement": "MIC", "setting": "KLPN ATCC 4352", "value": 0.78, "unit": "µg/mL"}, {"measurement": "FOLD CHANGES [Absorbance (abs; OD 600 nm)] No Treatment [Bacteria alone]: Colistin 0.5 μg", "setting": "KLPN ATCC 10031", "value": 1.25}, {"measurement": "FOLD CHANGES [Absorbance (abs; OD 600 nm)] No Treatment [Bacteria alone]: MIC Colistin", "setting": "KLPN ATCC 10031", "value": 10.11}, {"measurement": "MIC", "setting": "KLPN ATCC 10031", "value": 1.56, "unit": "µg/mL"}, {"measurement": "FOLD CHANGES [Absorbance (abs; OD 600 nm)] No Treatment [Bacteria alone]: Colistin 0.5 μg", "setting": "KLPN ATCC 27736", "value": 1.21}, {"measurement": "FOLD CHANGES [Absorbance (abs; OD 600 nm)] No Treatment [Bacteria alone]: MIC Colistin", "setting": "KLPN ATCC 27736", "value": 9.67}, {"measurement": "MIC", "setting": "KLPN ATCC 27736", "value": 0.78, "unit": "µg/mL"}, {"measurement": "FOLD CHANGES [Absorbance (abs; OD 600 nm)] No Treatment [Bacteria alone]: Colistin 0.5 μg", "setting": "KLPN ATCC 35657", "value": 1.57}, {"measurement": "FOLD CHANGES [Absorbance (abs; OD 600 nm)] No Treatment [Bacteria alone]: MIC Colistin", "setting": "KLPN ATCC 35657", "value": 13.49}, {"measurement": "MIC", "setting": "KLPN ATCC 35657", "value": 1.56, "unit": "µg/mL"}, {"measurement": "FOLD CHANGES [Absorbance (abs; OD 600 nm)] No Treatment [Bacteria alone]: Colistin 0.5 μg", "setting": "KLPN ATCC 700603", "value": 1.11}, {"measurement": "FOLD CHANGES [Absorbance (abs; OD 600 nm)] No Treatment [Bacteria alone]: MIC Colistin", "setting": "KLPN ATCC 700603", "value": 9.64}, {"measurement": "MIC", "setting": "KLPN ATCC 700603", "value": 1.56, "unit": "µg/mL"}, {"measurement": "FOLD CHANGES [Absorbance (abs; OD 600 nm)] No Treatment [Bacteria alone]: Colistin 0.5 μg", "setting": "KLPN CRE 7955", "value": 1.64}, {"measurement": "FOLD CHANGES [Absorbance (abs; OD 600 nm)] No Treatment [Bacteria alone]: MIC Colistin", "setting": "KLPN CRE 7955", "value": 10.28}, {"measurement": "MIC", "setting": "KLPN CRE 7955", "value": 1.56, "unit": "µg/mL"}, {"measurement": "FOLD CHANGES [Absorbance (abs; OD 600 nm)] No Treatment [Bacteria alone]: Colistin 0.5 μg", "setting": "KLPN CRE 15588", "value": 2.50}, {"measurement": "FOLD CHANGES [Absorbance (abs; OD 600 nm)] No Treatment [Bacteria alone]: MIC Colistin", "setting": "KLPN CRE 15588", "value": 7.39}, {"measurement": "MIC", "setting": "KLPN CRE 15588", "value": 0.78, "unit": "µg/mL"}, {"measurement": "FOLD CHANGES [Absorbance (abs; OD 600 nm)] No Treatment [Bacteria alone]: Colistin 0.5 μg", "setting": "KLPN CRE 16260", "value": 1.06}, {"measurement": "MIC", "setting": "KLPN CRE 16260", "value": ">50", "unit": "µg/mL"}, {"measurement": "FOLD CHANGES [Absorbance (abs; OD 600 nm)] No Treatment [Bacteria alone]: Colistin 0.5 μg", "setting": "KLPN CRE 27025", "value": 5.24}, {"measurement": "FOLD CHANGES [Absorbance (abs; OD 600 nm)] No Treatment [Bacteria alone]: MIC Colistin", "setting": "KLPN CRE 27025", "value": 11.84}, {"measurement": "MIC", "setting": "KLPN CRE 27025", "value": 0.78, "unit": "µg/mL"}, {"measurement": "FOLD CHANGES [Absorbance (abs; OD 600 nm)] No Treatment [Bacteria alone]: Colistin 0.5 μg", "setting": "KLPN CRE 55301", "value": 1.09}, {"measurement": "FOLD CHANGES [Absorbance (abs; OD 600 nm)] No Treatment [Bacteria alone]: MIC Colistin", "setting": "KLPN CRE 55301", "value": 9.00}, {"measurement": "MIC", "setting": "KLPN CRE 55301", "value": 0.78, "unit": "µg/mL"}, {"measurement": "FOLD CHANGES [Absorbance (abs; OD 600 nm)] No Treatment [Bacteria alone]: Colistin 0.5 μg", "setting": "PAE ATCC 9027", "value": 0.98}, {"measurement": "FOLD CHANGES [Absorbance (abs; OD 600 nm)] No Treatment [Bacteria alone]: MIC Colistin", "setting": "PAE ATCC 9027", "value": 8.80}, {"measurement": "MIC", "setting": "PAE ATCC 9027", "value": 1.56, "unit": "µg/mL"}, {"measurement": "FOLD CHANGES [Absorbance (abs; OD 600 nm)] No Treatment [Bacteria alone]: Colistin 0.5 μg", "setting": "PAE ATCC 9721", "value": 1.01}, {"measurement": "FOLD CHANGES [Absorbance (abs; OD 600 nm)] No Treatment [Bacteria alone]: MIC Colistin", "setting": "PAE ATCC 9721", "value": 5.80}, {"measurement": "MIC", "setting": "PAE ATCC 9721", "value": 1.56, "unit": "µg/mL"}, {"measurement": "FOLD CHANGES [Absorbance (abs; OD 600 nm)] No Treatment [Bacteria alone]: Colistin 0.5 μg", "setting": "PAE ATCC 15442", "value": 1.03}, {"measurement": "FOLD CHANGES [Absorbance (abs; OD 600 nm)] No Treatment [Bacteria alone]: MIC Colistin", "setting": "PAE ATCC 15442", "value": 14.00}, {"measurement": "MIC", "setting": "PAE ATCC 15442", "value": 1.56, "unit": "µg/mL"}, {"measurement": "FOLD CHANGES [Absorbance (abs; OD 600 nm)] No Treatment [Bacteria alone]: Colistin 0.5 μg", "setting": "PAE ATCC 27853", "value": 0.96}, {"measurement": "FOLD CHANGES [Absorbance (abs; OD 600 nm)] No Treatment [Bacteria alone]: MIC Colistin", "setting": "PAE ATCC 27853", "value": 8.35}, {"measurement": "MIC", "setting": "PAE ATCC 27853", "value": 0.78, "unit": "µg/mL"}, {"measurement": "FOLD CHANGES [Absorbance (abs; OD 600 nm)] No Treatment [Bacteria alone]: Colistin 0.5 μg", "setting": "PAE ATCC BAA-1744", "value": 1.11}, {"measurement": "FOLD CHANGES [Absorbance (abs; OD 600 nm)] No Treatment [Bacteria alone]: MIC Colistin", "setting": "PAE ATCC BAA-1744", "value": 6.81}, {"measurement": "MIC", "setting": "PAE ATCC BAA-1744", "value": 1.56, "unit": "µg/mL"}, {"measurement": "FOLD CHANGES [Absorbance (abs; OD 600 nm)] No Treatment [Bacteria alone]: Colistin 0.5 μg", "setting": "PAE DM 4150", "value": 1.02}, {"measurement": "FOLD CHANGES [Absorbance (abs; OD 600 nm)] No Treatment [Bacteria alone]: MIC Colistin", "setting": "PAE DM 4150", "value": 10.34}, {"measurement": "MIC", "setting": "PAE DM 4150", "value": 3.125, "unit": "µg/mL"}, {"measurement": "FOLD CHANGES [Absorbance (abs; OD 600 nm)] No Treatment [Bacteria alone]: Colistin 0.5 μg", "setting": "PAE DM 23155", "value": 1.30}, {"measurement": "FOLD CHANGES [Absorbance (abs; OD 600 nm)] No Treatment [Bacteria alone]: MIC Colistin", "setting": "PAE DM 23155", "value": 7.00}, {"measurement": "MIC", "setting": "PAE DM 23155", "value": 1.56, "unit": "µg/mL"}, {"measurement": "FOLD CHANGES [Absorbance (abs; OD 600 nm)] No Treatment [Bacteria alone]: Colistin 0.5 μg", "setting": "PAE DM 23257", "value": 1.02}, {"measurement": "FOLD CHANGES [Absorbance (abs; OD 600 nm)] No Treatment [Bacteria alone]: MIC Colistin", "setting": "PAE DM 23257", "value": 7.71}, {"measurement": "MIC", "setting": "PAE DM 23257", "value": 1.56, "unit": "µg/mL"}, {"measurement": "FOLD CHANGES [Absorbance (abs; OD 600 nm)] No Treatment [Bacteria alone]: Colistin 0.5 μg", "setting": "PAE DM 23376", "value": 0.93}, {"measurement": "FOLD CHANGES [Absorbance (abs; OD 600 nm)] No Treatment [Bacteria alone]: MIC Colistin", "setting": "PAE DM 23376", "value": 8.00}, {"measurement": "MIC", "setting": "PAE DM 23376", "value": 1.56, "unit": "µg/mL"}, {"measurement": "FOLD CHANGES [Absorbance (abs; OD 600 nm)] No Treatment [Bacteria alone]: Colistin 0.5 μg", "setting": "PAE DR 4877", "value": 1.30}, {"measurement": "FOLD CHANGES [Absorbance (abs; OD 600 nm)] No Treatment [Bacteria alone]: MIC Colistin", "setting": "PAE DR 4877", "value": 12.00}, {"measurement": "MIC", "setting": "PAE DR 4877", "value": 1.56, "unit": "µg/mL"}, {"measurement": "FOLD CHANGES [Absorbance (abs; OD 600 nm)] No Treatment [Bacteria alone]: Colistin 0.5 μg", "setting": "PAE DR 5790", "value": 1.06}, {"measurement": "FOLD CHANGES [Absorbance (abs; OD 600 nm)] No Treatment [Bacteria alone]: MIC Colistin", "setting": "PAE DR 5790", "value": 10.25}, {"measurement": "MIC", "setting": "PAE DR 5790", "value": 0.78, "unit": "µg/mL"}, {"measurement": "FOLD CHANGES [Absorbance (abs; OD 600 nm)] No Treatment [Bacteria alone]: Colistin 0.5 μg", "setting": "PAE DU 14476", "value": 0.90}, {"measurement": "FOLD CHANGES [Absorbance (abs; OD 600 nm)] No Treatment [Bacteria alone]: MIC Colistin", "setting": "PAE DU 14476", "value": 7.21}, {"measurement": "MIC", "setting": "PAE DU 14476", "value": 1.56, "unit": "µg/mL"}]}
